Data taken from patent US8217055B2, “Pyrido-pyrazine derivatives useful as herbicidal compounds” (Syngenta Crop Protection LLC, priority 2006, dated 2012).

Experiments:
Assay in all cases: Example B2 herbicidal action, post-emergence, pots in glasshouse, evaluated after 13 days (10=total damage to plant; 0=no damage to plant)
Type in all cases: in vivo
Details in all cases: rate 1000 g/ha
Ipomea hederaceae = tested on: Ipomea hederaceae
Experimental: (§1) Seeds of a variety of test species were sown in standard soil in pots. After 8 days cultivation (post-emergence) under controlled conditions in a glasshouse (at 24/16° C., day/night; 14 hours light; 65% humidity), the plants were sprayed with an aqueous spray solution derived from the formulation of the technical active ingredient in acetone/water (50:50) solution containing 0.5% Tween 20 (polyoxyethelyene sorbitan monolaurate, CAS RN 9005-64-5). The test plants were then grown in a glasshouse under controlled conditions in a glasshouse (at 24/16° C., day/night; 14 hours light; 65% humidity) and watered twice daily. After 13 days, the test was evaluated (10=total damage to plant; 0=no damage to plant).

Amaranthus retroflexus = tested on: Amaranthus retroflexus
Experimental: as §1

Solanum nigrum = tested on: Solanum nigrum
Experimental: as §1

Setaria faberi = tested on: Setaria faberi
Experimental: as §1

Echinochloa crus-galli = tested on: Echinochloa crus-galli
Experimental: as §1

O=C1c2nccnc2N(CC=C(Cl)Cl)C(=O)C1c1c(F)ccc(F)c1Cl (stereo not shown) [D3]
IPOHE damage score (10=total damage to plant; 0=no damage to plant) (Ipomea hederaceae): 7 | AMARE damage score (10=total damage to plant; 0=no damage to plant) (Amaranthus retroflexus): 9 | SOLNI damage score (10=total damage to plant; 0=no damage to plant) (Solanum nigrum): 7 | SETFA damage score (10=total damage to plant; 0=no damage to plant) (Setaria faberi): 3 | ECHCG damage score (10=total damage to plant; 0=no damage to plant) (Echinochloa crus-galli): 0

CC(C)C(=O)Oc1c(-c2c(F)ccc(F)c2Cl)c(=O)n(CC(F)(F)F)c2nccnc12 [C10]
IPOHE damage score (10=total damage to plant; 0=no damage to plant) (Ipomea hederaceae): 10 | AMARE damage score (10=total damage to plant; 0=no damage to plant) (Amaranthus retroflexus): 10 | SOLNI damage score (10=total damage to plant; 0=no damage to plant) (Solanum nigrum): 10 | SETFA damage score (10=total damage to plant; 0=no damage to plant) (Setaria faberi): 6 | ECHCG damage score (10=total damage to plant; 0=no damage to plant) (Echinochloa crus-galli): 3

CC(C)(C)C(=O)Oc1c(-c2c(F)ccc(Br)c2Cl)c(=O)n(CC(F)F)c2nccnc12 [A19]
IPOHE damage score (10=total damage to plant; 0=no damage to plant) (Ipomea hederaceae): 9 | AMARE damage score (10=total damage to plant; 0=no damage to plant) (Amaranthus retroflexus): 10 | SOLNI damage score (10=total damage to plant; 0=no damage to plant) (Solanum nigrum): 10 | SETFA damage score (10=total damage to plant; 0=no damage to plant) (Setaria faberi): 8 | ECHCG damage score (10=total damage to plant; 0=no damage to plant) (Echinochloa crus-galli): 7

CC(C)C(=O)Oc1c(-c2cc(F)ccc2Cl)c(=O)n(CC(F)F)c2nccnc12 [A13]
IPOHE damage score (10=total damage to plant; 0=no damage to plant) (Ipomea hederaceae): 10 | AMARE damage score (10=total damage to plant; 0=no damage to plant) (Amaranthus retroflexus): 10 | SOLNI damage score (10=total damage to plant; 0=no damage to plant) (Solanum nigrum): 10 | SETFA damage score (10=total damage to plant; 0=no damage to plant) (Setaria faberi): 9 | ECHCG damage score (10=total damage to plant; 0=no damage to plant) (Echinochloa crus-galli): 8

CCc1cc(C)cc(CC)c1-c1c(O)c2nccnc2n(CC(F)F)c1=O [B4]
IPOHE damage score (10=total damage to plant; 0=no damage to plant) (Ipomea hederaceae): 10 | AMARE damage score (10=total damage to plant; 0=no damage to plant) (Amaranthus retroflexus): 7 | SOLNI damage score (10=total damage to plant; 0=no damage to plant) (Solanum nigrum): 10 | SETFA damage score (10=total damage to plant; 0=no damage to plant) (Setaria faberi): 9 | ECHCG damage score (10=total damage to plant; 0=no damage to plant) (Echinochloa crus-galli): 8

COc1cc(F)c(F)cc1-c1c(OC(=O)C(C)(C)C)c2nccnc2n(CC(F)F)c1=O [A44]
IPOHE damage score (10=total damage to plant; 0=no damage to plant) (Ipomea hederaceae): 6 | AMARE damage score (10=total damage to plant; 0=no damage to plant) (Amaranthus retroflexus): 9 | SOLNI damage score (10=total damage to plant; 0=no damage to plant) (Solanum nigrum): 10 | SETFA damage score (10=total damage to plant; 0=no damage to plant) (Setaria faberi): 9 | ECHCG damage score (10=total damage to plant; 0=no damage to plant) (Echinochloa crus-galli): 7

O=c1c(-c2cc(F)ccc2Cl)c(O)c2nccnc2n1CC(F)F [B7]
IPOHE damage score (10=total damage to plant; 0=no damage to plant) (Ipomea hederaceae): 9 | AMARE damage score (10=total damage to plant; 0=no damage to plant) (Amaranthus retroflexus): 10 | SOLNI damage score (10=total damage to plant; 0=no damage to plant) (Solanum nigrum): 9 | SETFA damage score (10=total damage to plant; 0=no damage to plant) (Setaria faberi): 7 | ECHCG damage score (10=total damage to plant; 0=no damage to plant) (Echinochloa crus-galli): 7

Cc1cc(C)c(-c2c(O)c3nccnc3n(CC(F)F)c2=O)c(C)c1 [B5]
IPOHE damage score (10=total damage to plant; 0=no damage to plant) (Ipomea hederaceae): 10 | AMARE damage score (10=total damage to plant; 0=no damage to plant) (Amaranthus retroflexus): 7 | SOLNI damage score (10=total damage to plant; 0=no damage to plant) (Solanum nigrum): 10 | SETFA damage score (10=total damage to plant; 0=no damage to plant) (Setaria faberi): 8 | ECHCG damage score (10=total damage to plant; 0=no damage to plant) (Echinochloa crus-galli): 8

CC(C)(C)C(=O)Oc1c(-c2cc(Cl)ccc2C(F)(F)F)c(=O)n(CC(F)F)c2nccnc12 [A37]
IPOHE damage score (10=total damage to plant; 0=no damage to plant) (Ipomea hederaceae): 7 | AMARE damage score (10=total damage to plant; 0=no damage to plant) (Amaranthus retroflexus): 6 | SOLNI damage score (10=total damage to plant; 0=no damage to plant) (Solanum nigrum): 5 | SETFA damage score (10=total damage to plant; 0=no damage to plant) (Setaria faberi): 7 | ECHCG damage score (10=total damage to plant; 0=no damage to plant) (Echinochloa crus-galli): 5

O=c1c(-c2c(F)ccc(Cl)c2Cl)c(O)c2nccnc2n1CC(F)F [B14]
IPOHE damage score (10=total damage to plant; 0=no damage to plant) (Ipomea hederaceae): 10 | AMARE damage score (10=total damage to plant; 0=no damage to plant) (Amaranthus retroflexus): 10 | SOLNI damage score (10=total damage to plant; 0=no damage to plant) (Solanum nigrum): 10 | SETFA damage score (10=total damage to plant; 0=no damage to plant) (Setaria faberi): 7 | ECHCG damage score (10=total damage to plant; 0=no damage to plant) (Echinochloa crus-galli): 6

Cc1cc(C)c(-c2c(OC(=O)C(C)(C)C)c3nccnc3n(CC(F)F)c2=O)c(C)c1 [A25]
IPOHE damage score (10=total damage to plant; 0=no damage to plant) (Ipomea hederaceae): 8 | AMARE damage score (10=total damage to plant; 0=no damage to plant) (Amaranthus retroflexus): 7 | SOLNI damage score (10=total damage to plant; 0=no damage to plant) (Solanum nigrum): 10 | SETFA damage score (10=total damage to plant; 0=no damage to plant) (Setaria faberi): 7 | ECHCG damage score (10=total damage to plant; 0=no damage to plant) (Echinochloa crus-galli): 7
